From patent publication US10590086B2, “Pharmaceutical compound” (IOmet Pharma Ltd., priority 2014, dated 2020)

Columns and labels:
TDO [1] = target: T1, TDO (Homo sapiens, UniProt P48775); assay: hTDO biochemical coupled assay; conditions: 330 μM L-tryptophan, read-out: hTDO biochemical assay pIC50 (converted)
IDO [2] = target: T2, IDO (Homo sapiens, UniProt P14902); assay: hIDO biochemical coupled assay; conditions: 45 μM L-tryptophan, read-out: hIDO biochemical assay pIC50 (converted)
TDO [3] = target: T1, TDO; assay: A172 kynurenine cell-based assay; parameters: This assay utilised cancer cells which expressed either TDO or IDO; endogenous in cells; host or cells: A172 (human glioblastoma); conditions: A172 human glioblastoma cells, 48 hours, read-out: A172 Kynurenine cell based assay pIC50 (converted)
Outline: (§1)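 Kynurenine in the culture supernatant was measured by absorbance at 490 nm after 5 minutes with Ehrlich's reagent. Cells had been exposed ±compound for 48 hours at 37 °C in phenol red-free RPMI, 10% FCS, 2 mM L-glutamine and 500 μM L-tryptophan. Seeding was 30,000/well for A172 (TDO) and 40,000/well for SKOV3 (IDO, induced with 500 ng/ml IFN-γ).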

IDO [4] = target: T2, IDO; assay: SKOV3 kynurenine cell-based assay (IDO induced by IFN-γ); parameters: IDO expression was induced in the SKOV3 cells by the addition of 500 ng/ml IFN-γ; endogenous in cells; host or cells: SKOV3 (human ovarian adenocarcinoma), induced with IFN-γ; conditions: 48 hours, read-out: SKOV3 Kynurenine cell based assay pIC50 (converted)
Outline: as §1

[5] = SKOV3 cells, IDO induced by 500 ng/ml IFN-γ
[6] = SKOV3 human ovarian adenocarcinoma cells, 500 ng/ml IFN-γ, 500 μM L-tryptophan

T2 sequence (P14902 whole entry): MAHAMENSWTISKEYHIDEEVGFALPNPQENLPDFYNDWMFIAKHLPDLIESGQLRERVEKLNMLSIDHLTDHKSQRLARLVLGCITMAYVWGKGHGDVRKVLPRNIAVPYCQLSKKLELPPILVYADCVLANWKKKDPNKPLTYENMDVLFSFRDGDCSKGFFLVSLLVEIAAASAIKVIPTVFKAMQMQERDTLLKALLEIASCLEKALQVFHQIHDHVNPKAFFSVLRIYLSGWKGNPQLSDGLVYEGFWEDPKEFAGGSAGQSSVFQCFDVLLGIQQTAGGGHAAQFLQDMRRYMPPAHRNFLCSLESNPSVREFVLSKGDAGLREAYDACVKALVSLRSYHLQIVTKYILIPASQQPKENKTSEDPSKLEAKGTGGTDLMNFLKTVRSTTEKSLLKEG
T1 sequence (P48775 whole entry): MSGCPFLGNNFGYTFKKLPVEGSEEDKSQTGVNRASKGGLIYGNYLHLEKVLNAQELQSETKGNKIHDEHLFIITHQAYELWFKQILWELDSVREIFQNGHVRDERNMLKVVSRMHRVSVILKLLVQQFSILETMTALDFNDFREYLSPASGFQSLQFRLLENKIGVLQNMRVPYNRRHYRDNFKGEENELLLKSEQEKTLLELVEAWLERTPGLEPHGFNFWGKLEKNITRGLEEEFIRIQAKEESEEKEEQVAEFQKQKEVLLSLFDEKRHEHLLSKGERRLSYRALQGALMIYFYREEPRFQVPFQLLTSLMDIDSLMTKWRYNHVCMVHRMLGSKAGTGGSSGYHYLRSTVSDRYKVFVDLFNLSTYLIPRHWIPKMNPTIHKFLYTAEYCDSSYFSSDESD

SMILES	IC50 (TDO [1]; 17 minutes, room temperature) [µM]	IC50 (TDO [1]) [µM]	IC50 (IDO [2]; 17 minutes, room temperature) [µM]	IC50 (IDO [2]) [µM]	IC50 (TDO [3]; 500 μM L-tryptophan) [µM]	IC50 (TDO [3]) [µM]	IC50 (IDO [4]; [5]) [µM]	IC50 (IDO [4]; [6]) [µM]
CS(=O)(=O)N1CCC(c2cc(Cl)cc3[nH]ncc23)CC1 [Compound 40, 6-chloro-4-(1-(methylsulfonyl)piperidin-4-yl)-1H-indazole]	< 3.16	0.302	< 3.16	2.34	< 3.16	0.0832	8.32	3.24 to 31.6
Cc1nc2c([nH]1)CN(c1cc(Cl)cc3[nH]ncc13)CC2 [Compound 211]	< 3.16	–	32.4 to 100	–	3.24 to 31.6	–	–	32.4 to 100
CNC(=O)C1CCN(c2cc(Cl)cc3[nH]ncc23)CC1 [Compound 249]	< 3.16	–	3.24 to 31.6	–	< 3.16	–	–	3.24 to 31.6
CNC(=O)C1CCCN(c2cc(Cl)cc3[nH]ncc23)C1 (stereo not drawn) [Compound 210]	3.24 to 31.6	–	> 100	–	3.24 to 31.6	–	–	32.4 to 100
CS(=O)(=O)N1CC2(CCN(c3cc(Cl)cc4[nH]ncc34)CC2)C1 [Compound 351]	< 3.16	–	32.4 to 100	–	< 3.16	–	–	3.24 to 31.6
CC(=O)N(C)c1cc(C2CCN(S(C)(=O)=O)CC2)c2cn[nH]c2c1 [Compound 337]	> 100	–	> 100	–	> 100	–	–	3.24 to 31.6
CS(=O)(=O)N1CCC(C(O)c2cc(Cl)cc3[nH]ncc23)CC1 (stereo not drawn) [Compound 333]	< 3.16	–	> 100	–	3.24 to 31.6	–	–	32.4 to 100
C[C@H]1CN(S(C)(=O)=O)CCN1c1cc(C(F)(F)F)cc2[nH]ncc12 [Compound 214]	< 3.16	–	32.4 to 100	–	< 3.16	–	–	3.24 to 31.6
Nc1ccnn1C1CCN(c2cc(Cl)cc3[nH]ncc23)CC1 [Compound 430]	< 3.16	–	< 3.16	–	3.24 to 31.6	–	–	> 100
Clc1cc(N2CCc3[nH]ncc3C2)c2cn[nH]c2c1 [Compound 328]	< 3.16	–	> 100	–	< 3.16	–	–	3.24 to 31.6
CS(=O)(=O)N1CCC2(CCN(c3cc(Cl)cc4[nH]ncc34)CC2)CC1 [Compound 355]	< 3.16	–	32.4 to 100	–	< 3.16	–	–	3.24 to 31.6
CC(=O)N1CCC(n2cc(-c3cc(Cl)cc4[nH]ncc34)cn2)CC1 [Compound 348]	< 3.16	–	> 100	–	< 3.16	–	–	3.24 to 31.6
CN(c1cc(C2CCN(S(C)(=O)=O)CC2)c2cn[nH]c2c1)S(C)(=O)=O [Compound 338]	> 100	–	> 100	–	3.24 to 31.6	–	–	> 100
OC(c1cc(Cl)cc2[nH]ncc12)C1CCOCC1 (stereo not drawn) [Compound 299]	< 3.16	–	> 100	–	< 3.16	–	–	> 100
CC(=O)N1CCN(c2cc(Cl)cc3c(N)n[nH]c23)CC1 [Compound 322]	> 100	–	> 100	–	3.24 to 31.6	–	–	3.24 to 31.6
CC1(C)CN(c2cc(C#N)cc3[nH]ncc23)CCN1S(C)(=O)=O [Compound 334]	< 3.16	–	< 3.16	–	< 3.16	–	–	3.24 to 31.6
CS(=O)(=O)NCCN1CCN(c2cc(Cl)cc3[nH]ncc23)CC1 [Compound 403]	< 3.16	–	> 100	–	< 3.16	–	–	> 100

SMILES	IC50 (TDO [1]; 17 minutes, room temperature) [µM]	IC50 (TDO [1]) [µM]	IC50 (IDO [2]; 17 minutes, room temperature) [µM]	IC50 (IDO [2]) [µM]	IC50 (TDO [3]; 500 μM L-tryptophan) [µM]	IC50 (TDO [3]) [µM]	IC50 (IDO [4]; [5]) [µM]	IC50 (IDO [4]; [6]) [µM]
O=C1N[C@H]2CC[C@@H]1CN(c1cc(Cl)cc3[nH]ncc13)C2 [Compound 393, (1R,5S)-3-(6-chloro-1H-indazol-4-yl)-3,6-diazabicyclo[3.2.2]nonan-7-one]	< 3.16	0.245	32.4 to 100	51.3	< 3.16	0.055	38	32.4 to 100
CCc1cc(C2CCN(S(C)(=O)=O)CC2)c2cn[nH]c2c1 [Compound 326]	< 3.16	–	3.24 to 31.6	–	3.24 to 31.6	–	–	3.24 to 31.6
Cn1ncc2c1CCN(c1cc(Cl)cc3[nH]ncc13)C2 [Compound 369]	< 3.16	–	3.24 to 31.6	–	< 3.16	–	–	3.24 to 31.6
CNc1cc(-c2cc(Cl)cc3[nH]ncc23)ccn1 [Compound 279]	< 3.16	–	> 100	–	< 3.16	–	–	< 3.16
CC1(C)CN(c2cc(Cl)cc3[nH]ncc23)CCN1CCNS(C)(=O)=O [Compound 420]	< 3.16	–	3.24 to 31.6	–	< 3.16	–	–	> 100
O=C1CCC2(CCN(c3cc(Cl)cc4[nH]ncc34)CC2)N1 [Compound 215]	< 3.16	–	3.24 to 31.6	–	< 3.16	–	–	3.24 to 31.6
Clc1cc(N2CCc3ccncc3C2)c2cn[nH]c2c1 [Compound 346]	< 3.16	–	> 100	–	< 3.16	–	–	3.24 to 31.6
Clc1cc(N2CCC(c3ncco3)CC2)c2cn[nH]c2c1 [Compound 429]	< 3.16	–	3.24 to 31.6	–	< 3.16	–	–	3.24 to 31.6
O=C1N[C@H]2CC[C@@H]1CN(c1cc(C(F)(F)F)cc3[nH]ncc13)C2 [Compound 439]	< 3.16	–	3.24 to 31.6	–	< 3.16	–	–	> 100
CC1(C)CN(c2cc(Cl)cc3[nH]ncc23)CCN1S(C)(=O)=O [Compound 45, 6-chloro-4-(3,3-dimethyl-4-(methylsulfonyl)piperazin-1-yl)-1H-indazole]	< 3.16	0.263	< 3.16	0.447	< 3.16	0.01	0.372	< 3.16
CC1(C)CN(c2cc(C(F)(F)F)cc3[nH]ncc23)CCN1S(C)(=O)=O [Compound 78]	< 3.16	–	3.24 to 31.6	–	< 3.16	–	–	< 3.16
CS(=O)(=O)N1C2CCC1CN(c1cc(Cl)cc3[nH]ncc13)C2 [Compound 232]	< 3.16	–	3.24 to 31.6	–	< 3.16	–	–	3.24 to 31.6
CN(C)S(=O)(=O)N1CCN(c2cccc3[nH]ncc23)CC1 [Compound 21]	3.24 to 31.6	–	> 100	–	3.24 to 31.6	–	–	32.4 to 100
CC(C)N1C(=O)NC2(CCN(c3cc(Cl)cc4[nH]ncc34)CC2)C1=O [Compound 316]	< 3.16	–	3.24 to 31.6	–	< 3.16	–	–	3.24 to 31.6
O=C1NC2(CCN(c3cc(Cl)cc4[nH]ncc34)CC2)C(=O)N1Cc1ccccc1 [Compound 331]	< 3.16	–	< 3.16	–	< 3.16	–	–	< 3.16
CS(=O)(=O)N1CCC(c2cc(C3CCCC3)cc3[nH]ncc23)CC1 [Compound 218]	> 100	–	32.4 to 100	–	> 100	–	–	32.4 to 100
